Reference: article PMC8133782, “Identification of a series of hair-cell MET channel blockers that protect against aminoglycoside-induced ototoxicity” (JCI Insight, 2021)
Values belong to the compound of their own block, whether it stands above or below them.

Assays:
Format in all cases: cell-based
[1] = target: T1, mechano-electrical transducer (MET) channel (pore subunit TMC1) (Mus musculus, UniProt Q8R4P5); experiment: whole-cell patch clamp of MET currents in OHCs, fractional block at […] (approximately […])
T1 construct: native MET channel in early postnatal CD-1 mouse outer hair cells
T1 sequence (Q8R4P5 1-757): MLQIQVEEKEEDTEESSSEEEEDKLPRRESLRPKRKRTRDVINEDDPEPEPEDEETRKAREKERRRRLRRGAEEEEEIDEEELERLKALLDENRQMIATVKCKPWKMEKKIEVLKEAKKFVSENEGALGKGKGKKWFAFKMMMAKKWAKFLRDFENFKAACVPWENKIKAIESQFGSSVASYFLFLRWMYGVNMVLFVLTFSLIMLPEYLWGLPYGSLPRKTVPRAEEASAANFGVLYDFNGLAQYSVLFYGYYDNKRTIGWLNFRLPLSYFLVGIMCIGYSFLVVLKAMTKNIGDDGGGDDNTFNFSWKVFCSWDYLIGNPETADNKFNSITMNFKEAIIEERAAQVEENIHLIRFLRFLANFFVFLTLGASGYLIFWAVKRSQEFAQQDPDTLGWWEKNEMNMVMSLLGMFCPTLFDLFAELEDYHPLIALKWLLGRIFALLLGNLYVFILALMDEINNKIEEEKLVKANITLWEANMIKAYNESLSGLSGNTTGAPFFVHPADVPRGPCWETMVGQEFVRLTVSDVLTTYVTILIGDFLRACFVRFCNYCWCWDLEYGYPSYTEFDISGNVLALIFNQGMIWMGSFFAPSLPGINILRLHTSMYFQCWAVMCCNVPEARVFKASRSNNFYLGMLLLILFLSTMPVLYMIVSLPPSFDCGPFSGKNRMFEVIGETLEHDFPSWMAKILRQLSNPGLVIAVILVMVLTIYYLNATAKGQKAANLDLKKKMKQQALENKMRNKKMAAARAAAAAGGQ

[2] = target: T1, mechano-electrical transducer (MET) channel (pore subunit TMC1); experiment: whole-cell patch clamp of MET currents in OHCs, fractional block at […]
[3] = target: T1, mechano-electrical transducer (MET) channel (pore subunit TMC1); experiment: whole-cell patch clamp of MET currents in OHCs, fractional block at […], partially reversible

inhibition at 50 µM [1]: ~80%
SMILES: C(=C\c1ccccc1)/CN1CCC(c2nc3ccccc3[nH]2)CC1 [UoS-3606]

inhibition at 50 µM [2]: ~70%
SMILES: O=C(CN1CCC(c2nc3ccccc3[nH]2)CC1)Nc1cccc([N+](=O)[O-])c1 [UoS-3607]

inhibition at 50 µM [3]: ~70%
SMILES: O=C(Nc1ccc(OC(F)(F)F)cc1)C1CCN(Cc2nc3ccccc3[nH]2)CC1 [UoS-8052]
